Data reported in US20090326064A1, “Pesticidal composition” (priority 2006, published 2009).

Columns and labels:
Type in all cases: physicochemical
[1] = Stability under solar light
[2] = Stability in general-use solvents; settings: such as acidic or alkaline aqueous solutions
[3] = Vapor pressure; settings: at 25° C.

CC=CC1C(C(=O)OCc2c(F)c(F)c(COC)c(F)c2F)C1(C)C (stereo not drawn) [Compound A, 2,3,5,6-tetrafluoro-4-methoxymethylbenzyl 1R-trans-3-(1-propenyl(E/Z=1/8))-2,2-dimethylcyclopropanecarboxylate]
stability under solar light [1]: very stable
stability in various general-use solvents [2]: stable
vapor pressure [3]: 1.96×10^−3 Pa
